Series [1] relates to P. falciparum. Briefly: Antimalarial activity against P. falciparum in vitro (Desjardins [3H]hypoxanthine incorporation). Type of series: cell-based. How it is done:
FIG. 1, the anti-malarial action of a precursor of thiazolium (designated by TE4c in the examples), and corresponding thiazolium (T4) as a function of the concentration of drug, according to the Desjardins test, (Desjardins R. E. et al, Antimicrob. Agents Chemother. 1979, 16, 710-718),
The IC50 measurements are determined vis-à-vis P. falciparum according to the Desjardins method in which the incorporation of [^3H] hypoxanthine (FIG. 1) into the nucleic acids is an indicator of cell viability. In each case, optical microscopy controls are carried out.
(§1) The IC50 is the concentration which inhibits by 50% the in vitro growth of P. falciparum: the LD50 is the lethal dose corresponding to the death of 50% of the mice and the ED50 is the effective dose for inhibiting by 50% the in vivo growth of P. vinckei according to a 4-day suppressive test, TI corresponds to the therapeutic index, TI=LD50 (semi-chronic)/ED50; ip: intraperitoneal administration; po: per os.

A short description of series [2]: Tolerance in the mouse: LD50 after acute or semi-chronic administration. Type of series: in vivo. The following applies: for Oral absorption index (LD50 po/LD50 ip ratio, acute): acute administration; for LD50 / LD50 at 4 days: in vivo; for LD50 / In vivo LD50 (mg/kg) (mouse) acute: single dose; for LD50 at 4 days / In vivo LD50 (mg/kg) (mouse) semi-chronic: twice per day for 4 consecutive days; for LD50 at 4 days: read-out: In vivo LD50 (mg/kg) (mouse) semi-chronic.
From the text: (§2) B) Antimalarial Activity in vivo Against a Mouse Infected by P. vinckei and Tolerance After Administration in Acute or Semi-chronic Conditions.
as §1

The test system of series [3] is P. vinckei. Briefly: animal or person. Type of series: in vivo. Particulars: mouse, 4-day suppressive test, TE4c in 50/50 PEG/castor oil; for ED50: Plasmodium vinckei, 96 h, read-out: In vivo ED50 (mg/kg) (P. vinckei).
From the text: as §2, §1

The nature of series [4]: Pharmacokinetics / serum level in the mouse (ex vivo bio-test on P. falciparum). How it is done:
The results of the pharmacokinetic parameters after administration by intraperitoneal or oral route in a mouse for a prodrug of disulphice type (TS3b) and a prodrug of thioester type (TE4c) are presented hereafter.
For determination of the serum level, bio-tests are used ex vivo: briefly, the medicament is administered to the animal, then repeated blood samples are taken. The sera are decomplemented for 30 minutes at 56° C. The active metabolite content is then determined by incubation of different concentrations (dichotomic dilution) of each serum, in the presence of suspensions of erythrocytes infected by P. falciparum, according to the DESJARDINS method with [^3H] hypoxanthine.
The results are expressed in IS50, which corresponds to the percentage of serum (containing an active metabolite) capable of inhibiting the growth of P. falciparum by 50%.
This value is then converted into a serum concentration, (usually expressed in ng/ml) by testing the active compound directly (without passing through the animal), on the same suspension infected by P. falciparum and by determining its IC50 value (in ng/ml) [serum level=IC50] (in ng/ml)×100/IS50 (in %)].
The results are expressed as the log (serum level of medicaments), as a function of time, which allows the evaluation of the half-time for distribution to the serum compartment t1/2(d); the half-time for elimination of the serum compartment (t1/2(e)); of C0), corresponding to the serum level originally extrapolated during the elimination phase; the AUC (which indicates the quantity of drug circulating in the blood stream); and the relative bio-availability in the oral route administration method, as against the intraperitoneal route method [AUC (po)/AUC (ip)] which is an indicator of the degree of absorption by oral route.

Series [5] relates to P. falciparum (FVO strain). In words: Antimalarial activity against Plasmodium falciparum in the Aotus monkey. The following applies: Aotus monkeys. Type of series: in vivo. How it is done:
3 Aotus monkeys were infected with P. falciparum (FVO strain). When the blood parasitemia reached 1% (2 monkeys) or 6% (1 monkey), treatment by intramuscular route at a rate of 2 injections per day of TE4c (2mg/kg), for 8 days, was carried out.

The mark [6] stands for this setting: in vitro growth of P. falciparum, [3H]hypoxanthine incorporation, 48 hours test, read-out: IC50.
Where [7] appears, read: ip, TE4c value corresponds to death of only 25% of the mice.
Setting [8] is: 3 mg/kg ip and 50 mg/kg po, both routes.
[9] abbreviates: ip 3 mg/kg TE4c, active metabolite considered to be T4.
Where [10] appears, read: oral 50 mg/kg TE4c, active metabolite considered to be T4.
[11] abbreviates: oral route, higher dose series (150 mg/kg po).

“And” between values parts separate entries of the source, which are not always exact repeats. Equal values may be shown once. Where a name gives a salt, the structure may show the parent alone. Read-outs that look alike come from different tables or passages of the source. Marks after values point to notes of the source that are not given here.

In the case of “1,12-decamethylene bis[4-methyl-5-(2-methoxyethyl)thiazolium] diiodide [T4]”, the IC50 in series [1] (setting [6]) amounted to 0.65 nM.
Same read-out and setting: for “1,16-hexadecamethylenebis[4-methyl-5-(2-methoxyethyl)thiazolium] diiodide [T8]” the value was 1.1 nM.
On to “2,15-(N,N′-diformyl-N,N′-dibenzyl)diamino-1,16-S-thiobenzoyl-hexadeca-1,15-diene [TE16]”, for which the IC50 in series [1] (setting [6]) was found to be 12 nM.
Take `C[N+]1(CCCCCCCCCCCCCCCC[N+]2(C)CCCC2)CCCC1` [G25, 1,16-hexadecamethylene bis-(N-methylpyrrolidinium), reference compound]: it took 0.6 nM to reach half-maximal inhibition in series [1] (Plasmodium falciparum) (IC50). Besides, the “Oral absorption index (LD50 po/LD50 ip ratio, acute)” value in series [2] was found to be 87. Moreover, the figures for the LD50 in series [2] (ip) and in series [2] (po) were 1.27 mg/kg and 130 mg/kg, respectively. Besides, the values for the LD50 at 4 days in series [2] (setting [7]) and in series [2] (po) were 1.15 mg/kg and 65 mg/kg, respectively. The ED50 in series [3] (ip) is 0.22 mg/kg; in series [3] (po) it was approximately 15 mg/kg.
Regarding `CC(Cl)CCCN(C)CCCCCCCCCCCCCCCCN(C)CCCC(C)Cl` (stereo not shown) [P2, N,N′-dimethyl-N,N′-(4-chloropentyl)-1,16-hexadecanediamine hydrochloride], the IC50 in series [1] (setting [6]) is 0.5 nM.
Turning to `Cc1c(CCO)sc[n+]1CCCCCCCCCCCC[n+]1csc(CCO)c1C.[Br-].[Br-]` [T3, 1,12-dodecamethylene bis [4-methyl-5-(2-hydroxyethyl)thiazolium] dibromide], the IC50 in series [1] (setting [6]) was found to be 2.25 nM. Moreover, the “Oral absorption index (LD50 po/LD50 ip ratio, acute)” value in series [2] came to 70. For the same molecule, the “In vivo LD50 (mg/kg) (mouse) acute” value in series [2] (ip) came to 10 mg/kg; in series [2] (po), 700 mg/kg. Besides, the “In vivo LD50 (mg/kg) (mouse) semi-chronic” value in series [2] (setting [7]) is on record as 7.5 mg/kg; in series [2] (po), 160 mg/kg.
Take `Cc1csc[n+]1CCCCCCCCCCCC[n+]1cscc1C` [T6, 1,12-dodecamethylenebis(4-methylthiazolium) diiodide]: the IC50 in series [1] (setting [6]) is 3 nM.
With `Cc1c(CCOCCCCCCOCCc2sc[n+](Cc3ccccc3)c2C)sc[n+]1Cc1ccccc1` [T10, 3,10-dioxadodecamethylenebis[5-(1-benzyl, 4-methyl)-thiazolium] dibromide], the concentration for half-maximal inhibition (IC50) in series [1] (setting [6]) is 2.5 nM.
`CCOC(=O)CCc1c(CCCCCCCCCCCCc2sc[n+](Cc3ccccc3)c2CCC(=O)OCC)sc[n+]1Cc1ccccc1` [T13, dodecamethylenebis[5-(1-benzyl-4-ethoxycarbonylethyl)-thiazolium] dibromide]: the IC50 in series [1] (setting [6]) was determined as 250 nM.
In the case of `c1ccc(Cc2csc[n+]2CCCCCCCCCCCC[n+]2cscc2Cc2ccccc2)cc1` [T16, dodecamethylenebis[4-(1-benzyl)-thiazolium] dibromide], the IC50 in series [1] (setting [6]) came to 10 nM.
Take `CC(=C1CCOC(=O)S1)N(C=O)CCCCCCCCCCCCN(C=O)C(C)=C1CCOC(=O)S1` [TE3, N,N′-diformyl-N,N′-di[1(2-oxo-4,5-dihydro-1,3-oxathian-4-ylidene)ethyl]1,12-diaminododecane]: in series [1] (setting [6]), the IC50 was 3 nM and 2.6 nM.
`COCCC(SC(=O)c1ccccc1)=C(C)N(C=O)CCCCCCCCCCCCN(C=O)C(C)=C(CCOC)SC(=O)c1ccccc1` [TE4c, N,N′-diformyl-N,N′-di[1-methyl-2-S-thiobenzoyl-4-methoxybut-1-enyl]-1,12-diaminododecane]: in series [1] (setting [6]), the IC50 worked out at 2 nM. The “Oral absorption index (LD50 po/LD50 ip ratio, acute)” value in series [2] is given as “˜10”. Besides, the “In vivo LD50 (mg/kg) (mouse) acute” value in series [2] (ip) is listed as 100 mg/kg; in series [2] (po), “˜1000 mg/kg”. Moreover, the “In vivo LD50 (mg/kg) (mouse) semi-chronic” value is reported as “≧30^d mg/kg” in series [2] (setting [7]) and “˜300 mg/kg” in series [2] (po). In series [3] (ip), the “In vivo ED50 (mg/kg) (P. vinckei)” value is reported as 1 mg/kg. The “time of first serum level peak” value in series [4] (setting [8]) is “in less than two hours”. The “time of second serum level peak” value was “around 15 hours” in series [4] (setting [8]); “around 23 hours” in series [4] (higher doses 10 mg/kg ip and 150 mg/kg po). In addition, the “relative bioavailability [AUC (po)/AUC (ip)]” value in series [4] (50 mg/kg po vs 3 mg/kg ip) stood at 5%. Further, the AUC in series [4] (setting [9]) is 3300 ng·h/mL; in series [4] (setting [10]), 2700 ng·h/mL. Further, the C0 was 180 ng/mL in series [4] (setting [9]), 130 ng/mL in series [4] (setting [10]) and 1000 ng/mL in series [4] (setting [11]). The results for the t1/2 in series [4] (setting [9]) and in series [4] (setting [11]) were 12 h and “around 10 hours”, respectively. In addition, the “recurrence of parasitemia after treatment” value in series [5] (6 months following the treatment) was “no further occurrence was observed in the 6 months following the treatment”. In addition, the “blood parasitemia after treatment” value in series [5] (parasitemia 1% or 6% at start, im 2 mg/kg, 2 injections per day, 8 days) was “completely eliminated”.
As for `CCN(CC)Cc1ccc(C(=O)SC(CCOC)=C(C)N(C=O)CCCCCCCCCCCCN(C=O)C(C)=C(CCOC)SC(=O)c2ccc(CN(CC)CC)cc2)cc1` [TE4f, N,N′-diformyl-N,N′-di[1-methyl-2-S-(p-diethylaminomethylphenylcarboxy)-thio-4-methoxybut-1-enyl]-1,12-diaminododecane], the IC50 in series [1] (setting [6]) amounted to 2.3 nM.
As to `COCCC(SC(=O)c1ccc(CN2CCOCC2)cc1)=C(C)N(C=O)CCCCCCCCCCCCN(C=O)C(C)=C(CCOC)SC(=O)c1ccc(CN2CCOCC2)cc1` [TE4g, N,N′-diformyl-N,N′-di[1-methyl-2-S-(p-morpholino-methylphenylcarboxy)-thio-4-methoxybut-1-enyl]-1,12-diaminododecane], in series [1] (setting [6]), the IC50 came to 2.3 nM.
For `COc1ccc(C(=O)SC(CCOCCCCCCOCCC(SC(=O)c2ccc(OC)cc2)=C(C)N(C=O)Cc2ccccc2)=C(C)N(C=O)Cc2ccccc2)cc1` [TE10, 2,17-(N,N′-diformyl-N,N′-dibenzyl)diamino-3,16-S-thio-p-methoxybenzoyl-6,13-dioxaoctadeca-2,16-diene], the IC50 in series [1] (setting [6]) was determined as 12 nM.
Consider `CCOC(=O)CC(=C(CCCCCCCCCCCCC(SC(=O)c1ccccc1)=C(CC(=O)OCC)N(C=O)Cc1ccccc1)SC(=O)c1ccccc1)N(C=O)Cc1ccccc1` [TE13, ethyl 3,18-(N,N′-diformyl-N,N′-dibenzyl)diamino-4,17-S-thiobenzoyleicosa-3,17-dienedioate], for which the IC50 in series [1] (setting [6]) worked out at 650 nM.
Take “N,N′-diformyl-N,N′-di[1-methyl-2-S-(p-phthaloyl)-thio-4-methoxybut-1-enyl]-1,12-diaminododecane [TE4j]”: the IC50 in series [1] (setting [6]) was determined as 2.7 nM.
As to “N,N′-dimethyl-N,N′-(5-chloropentyl)-1,16-hexadecane diamine hydrochloride [P1]”, in series [1] (setting [6]), the IC50 worked out at 1.7 nM.

These data come from patent US6972343B1, “Quaternary bis-ammonium salt precursors and their uses as prodrugs having an antiparasitic activity” (CNRS, priority 1999, dated 2005).
